PubChem BioAssay (NCI)
Several values for one entry are separate records, joined by “and”; a condition that tells them apart may be missing. Equal entries are not always repeated.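 A five-concentration, 48-hour dose response in 96-well plates underlies each endpoint, interpolated linearly between surrounding concentrations. Here, GI50 denotes the concentration required for 50% inhibition of growth. TGI is the concentration that stops growth completely.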

Key:
Assay in all cases: growth of human tumour cells (NCI), 48 h
CAKI-1 renal = system: CAKI-1 renal
COLO 205 colon = system: COLO 205 colon
HT29 colon = system: HT29 colon
MDA-MB-231 breast = system: MDA-MB-231 breast
NCI-H460 lung = system: NCI-H460 lung
SF-268 CNS = system: SF-268 CNS
SK-MEL-2 melanoma = system: SK-MEL-2 melanoma
SN12C renal = system: SN12C renal
UACC-62 melanoma = system: UACC-62 melanoma
UO-31 renal = system: UO-31 renal

Compound | TGI (CAKI-1 renal) | TGI (COLO 205 colon) | TGI (HT29 colon) | TGI (MDA-MB-231 breast) | TGI (NCI-H460 lung) | TGI (SF-268 CNS) | TGI (SK-MEL-2 melanoma) | TGI (SN12C renal) | TGI (UACC-62 melanoma) | TGI (UO-31 renal) | GI50 (CAKI-1 renal) | GI50 (COLO 205 colon) | GI50 (HT29 colon) | GI50 (MDA-MB-231 breast) | GI50 (NCI-H460 lung) | GI50 (SF-268 CNS) | GI50 (SK-MEL-2 melanoma) | GI50 (SN12C renal) | GI50 (UACC-62 melanoma) | GI50 (UO-31 renal)
O=C1Nc2ccc(Br)cc2C1=Nc1cccnc1 | > 100 µM | > 100 µM | 51.3 µM | 37.6 µM | > 100 µM | 71.8 µM | 57.2 µM | 37.9 µM | 35 µM | 29.7 µM |  |  |  |  |  |  |  |  |  | 
CC1CCC/C1=C(/I)C(=O)c1ccccc1 (stereo not given) | 69.5 µM | > 100 µM | > 100 µM | > 100 µM | > 100 µM | > 100 µM | > 100 µM | > 100 µM | > 100 µM | > 100 µM |  |  |  |  |  |  |  |  |  | 
COc1cc(C(=O)c2c(-c3ccccc3)oc3c(OC)cccc23)cc(OC)c1OC | 21.9 µM | 0.485 µM | > 100 µM | 2 µM | > 100 µM | > 100 µM | > 84.5 µM | > 100 µM | > 96.5 µM | > 100 µM | 47.4 nM | 123 nM | 49.1 nM | 203 nM | 51.8 nM | 128 nM | 2400 nM | 257 nM | 52.2 nM | 119 nM
O=C(Nc1ccc(Br)cc1F)c1cc(I)ccc1O | 6.51 µM | 30.8 µM | 78.3 µM | 6.28 µM | > 100 µM | 29.6 µM | 5.71 µM | 9.91 µM | 4.43 µM | 7.51 µM | 1830 nM | 12800 nM | 16900 nM | 1770 nM | 3150 nM | 2400 nM | 2000 nM | 2750 nM | 1370 nM | 1520 nM
Cc1c(C(=O)Nc2ccccc2)sc2ncn(Cc3cccc(Cl)c3)c(=O)c12 | 84.5 µM | > 100 µM | > 100 µM | 38.2 µM | > 100 µM | > 100 µM | > 100 µM | 85.1 µM | > 100 µM | 39.7 µM | 15400 nM | > 100000 nM | 78400 nM | 12100 nM | > 100000 nM | 73200 nM | 49200 nM | 20000 nM | 18800 nM | 13000 nM
O=C(/C=C/Sc1cc(C(F)(F)F)cc(C(F)(F)F)c1)c1ccc(Cl)cc1 | 9.43 µM | 6.6 µM | 23.9 µM | 8.67 µM | 36.6 µM | 29.6 µM | 63.1 µM | 3.46 µM | 15.6 µM | 6.05 µM | 3570 nM | 2100 nM | 6930 nM | 2510 nM | 16600 nM | 14400 nM | 31100 nM | 1710 nM | 4580 nM | 2850 nM
NCCCC[C@@H]1NC(=O)[C@H]2CCCN2C(=O)[C@H](Cc2ccccc2)CNC(=O)[C@H](Cc2ccccc2)NC1=O | > 37.5 µM | > 37.5 µM | > 37.5 µM | > 37.5 µM | > 37.5 µM | > 37.5 µM | > 37.5 µM | > 37.5 µM | > 37.5 µM | > 37.5 µM | > 37500 nM | > 37500 nM | > 37500 nM | > 37500 nM | > 37500 nM | > 37500 nM | > 37500 nM | > 37500 nM | > 37500 nM | > 37500 nM
Cc1cc(NCCCN(C)C)c2ccc3c(ccc4c(NCCCN(C)C)cc(C)nc43)c2n1 | 0.673 µM | 0.408 µM | 0.503 µM | 0.468 µM | 0.441 µM | 0.393 µM | 0.55 µM | 0.553 µM | 0.93 µM | 0.557 µM | 217 nM | 183 nM | 149 nM | 175 nM | 171 nM | 176 nM | 228 nM | 157 nM | 283 nM | 231 nM
CN(C)CCN1C(=O)c2c(c3c4ccccc4n4c3c3c2c2ccccc2n3C2CC(O)C(O)C4(C)O2)C1=O (stereo not given) | 12 µM | 7.1 µM | 7.54 µM | 11.5 µM | 5.08 µM | 8.76 µM | 9.2 µM | 7.87 µM | 3.93 µM | 13.9 µM | 1980 nM | 1230 nM | 1040 nM | 2610 nM | 232 nM | 1460 nM | 2970 nM | 914 nM | 767 nM | 1710 nM
O=C(C/C(=N/O)C(=O)NC1=C(Cl)C(=O)c2ccccc2C1=O)CC(c1ccccc1)c1c(O)c2ccccc2oc1=O (stereo not given) | 32.6 µM | 33.7 µM | 44.3 µM | 26.5 µM | 16 µM | 42.5 µM | 32.4 µM | 23.5 µM | > 100 µM | 44.5 µM |  |  |  |  |  |  |  |  |  | 
O=C1OCC2=C1C(c1cccc(Cl)c1)c1cc3c(cc1N2CCO)OCCO3 (stereo not given) | > 55.6 µM | 0.651 µM | 0.282 µM | 4.26 µM | 4.59 µM | 13.2 µM | 0.607 µM | 46.3 µM | > 70 µM | > 69.4 µM | 69.7 nM | 97.1 nM | 40.2 nM | 334 nM | 49.4 nM | 59.8 nM | 33.5 nM | 270 nM | 36.7 nM | 73.6 nM
COc1ccc(C/C(C)=C(/c2ccc(OCCN3CCCCC3)cc2)c2ccc(OC(=O)NCc3ccccc3)cc2)cc1 | 0.769 µM | 0.9 µM | 0.841 µM | 0.81 µM | 0.775 µM | 0.787 µM | 0.879 µM | 0.8 µM | 0.817 µM | 0.669 µM | 405 nM | 437 nM | 385 nM | 440 nM | 412 nM | 413 nM | 460 nM | 428 nM | 455 nM | 340 nM
COc1cccc(-c2c[nH]c3c(N/N=C/c4ccncc4)ncnc23)c1 | > 25 µM | 4.39 µM | 8.9 µM | > 22.9 µM | 5.89 µM | 13.3 µM | 6.15 µM | > 19.3 µM | 6.31 µM | > 23.7 µM | 1840 nM | 1200 nM | 1580 nM | 3830 nM | 1400 nM | 3440 nM | 1700 nM | 1650 nM | 2800 nM | 1750 nM
C[C@@H]1[C@H](C)N1CC(O)Cn1ccnc1[N+](=O)[O-] (stereo not given in full) | > 100 µM | > 100 µM | > 100 µM | > 100 µM | > 100 µM | > 100 µM | > 100 µM | > 100 µM | > 100 µM | > 100 µM |  |  |  |  |  |  |  |  |  | 
COc1ccc(CCN2CC=Cn3c2nc2ccccc2c3=O)cc1 | > 100 µM | 0.0847 µM | 27.4 µM | > 100 µM | 14.4 µM | > 60.8 µM | 32.9 µM | > 61.1 µM | > 100 µM | > 100 µM | 57.6 nM | 26.7 nM | 31.9 nM | 55.8 nM | 35.8 nM | 104 nM | 33.4 nM | 116 nM | 232 nM | 68.3 nM
C[C@H]1CC[C@@]2(NC1)O[C@H]1C[C@H]3[C@@H]4CC[C@H]5C[C@@H](O)CC[C@]5(C)[C@H]4CC[C@]3(C)[C@H]1[C@@H]2C | 34.5 µM and > 100 µM | 50 µM and > 100 µM | 50 µM and > 100 µM | 15.9 µM and > 100 µM | 34.8 µM and > 100 µM | 50 µM and > 100 µM | 23.9 µM and > 100 µM | 29.9 µM and > 100 µM | 17 µM and > 100 µM | 44.6 µM and > 100 µM | 12900 nM | 33300 nM | 9750 nM | 7260 nM | 11900 nM | 14000 nM | 10700 nM | 11200 nM | 9420 nM | 14200 nM
COc1cc(OC)c(C/C=C/c2ccccc2)cc1O | 40.9 µM | 50.7 µM | 31.5 µM | 31.7 µM | 31 µM | 34.4 µM | 41.8 µM | 32.7 µM | 29 µM | 29.6 µM |  |  |  |  |  |  |  |  |  | 
O=c1cnn(C2OC(CO)C(O)C2O)c(=S)[nH]1 (stereo not given) | > 100 µM | > 100 µM | > 100 µM | > 100 µM | > 41.7 µM | > 100 µM | > 100 µM | > 100 µM | > 100 µM | > 100 µM |  |  |  |  |  |  |  |  |  | 
NC(=O)N/N=C1/CCC(O)CC1CC(=O)O (stereo not given) | > 100 µM | > 100 µM | > 100 µM | > 100 µM | > 100 µM | > 100 µM | > 100 µM | > 100 µM | > 100 µM | > 100 µM |  |  |  |  |  |  |  |  |  | 
